Measurements taken from ChEMBL document CHEMBL3046330, “Synthesis and biological activity of hydrazidehydrazones and their corresponding 3-acetyl-2,5-disubstituted-2,3-dihydro-1,3,4-oxadiazoles” (Med Chem Res, 2012).
Values after ≈ are worked out from the molar mass of the structure shown. Active and inactive are the calls of the source. The calls are words filed in the database; no cut-off is given here.

Legend:
Diaporthe ampelina = assay: Antifungal activity against Diaporthe ampelina assessed as growth inhibition at 30 uM after 144 hr by broth microdilution method; assay type: functional; conditions: read-out: GI
SW1353 = assay: Inhibition of PMA-induced NFkappaB activity in Homo sapiens (human) SW1353 cells up to 25 ug/ml incubated for 30 min followed by PMA induction for 8 hr by luciferase reporter gene assay; assay type: cell-based
Candida albicans [1] = assay: Antifungal activity against Candida albicans NRRL Y-12983 after 24 hr by NCCLS broth microdilution method; assay type: functional; conditions: NRRL Y-12983, 24 h
[2] = target: T1, Nitric oxide synthase, inducible (Mus musculus, UniProt P29477); assay: Inhibition of iNOS in Mus musculus (mouse) RAW264.7 cells assessed as inhibition of LPS-induced nitrite production incubated for 30 min prior to LPS challenge measured after 24 hr by Griess assay; assay type: cell-based
T1 sequence (P29477 whole entry): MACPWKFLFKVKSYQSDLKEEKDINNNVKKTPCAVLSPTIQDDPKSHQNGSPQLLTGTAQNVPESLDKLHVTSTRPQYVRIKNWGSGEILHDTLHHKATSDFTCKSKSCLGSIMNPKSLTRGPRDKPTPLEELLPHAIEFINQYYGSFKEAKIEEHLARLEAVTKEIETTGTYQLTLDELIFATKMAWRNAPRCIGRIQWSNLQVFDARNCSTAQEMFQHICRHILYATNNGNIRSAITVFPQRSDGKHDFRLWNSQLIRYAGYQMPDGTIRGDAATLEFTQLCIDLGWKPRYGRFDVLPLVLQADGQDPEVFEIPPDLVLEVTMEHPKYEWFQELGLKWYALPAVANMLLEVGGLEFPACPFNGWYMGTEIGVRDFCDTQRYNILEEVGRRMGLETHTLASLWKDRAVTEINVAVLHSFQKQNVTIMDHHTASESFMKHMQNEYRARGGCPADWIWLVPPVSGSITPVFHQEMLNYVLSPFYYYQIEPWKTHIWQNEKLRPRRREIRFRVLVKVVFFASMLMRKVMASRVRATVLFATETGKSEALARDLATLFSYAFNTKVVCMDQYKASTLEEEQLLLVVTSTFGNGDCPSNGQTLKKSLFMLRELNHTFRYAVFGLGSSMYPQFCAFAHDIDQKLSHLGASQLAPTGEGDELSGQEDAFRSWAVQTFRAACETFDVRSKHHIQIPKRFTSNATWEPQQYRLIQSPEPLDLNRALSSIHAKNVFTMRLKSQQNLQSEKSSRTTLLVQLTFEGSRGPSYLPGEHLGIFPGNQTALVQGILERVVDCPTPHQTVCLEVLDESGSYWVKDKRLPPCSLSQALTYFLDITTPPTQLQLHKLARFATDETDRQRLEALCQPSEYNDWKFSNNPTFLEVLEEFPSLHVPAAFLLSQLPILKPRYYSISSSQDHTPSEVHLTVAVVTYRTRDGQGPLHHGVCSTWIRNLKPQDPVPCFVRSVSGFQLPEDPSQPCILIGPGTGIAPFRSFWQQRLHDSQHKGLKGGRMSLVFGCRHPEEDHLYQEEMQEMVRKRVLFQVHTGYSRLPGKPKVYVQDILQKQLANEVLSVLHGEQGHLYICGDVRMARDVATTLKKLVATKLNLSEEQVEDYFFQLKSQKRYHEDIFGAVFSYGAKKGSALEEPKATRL

Cyberlindnera jadinii = assay: Antifungal activity against Cyberlindnera jadinii NRRL Y-900 after 24 hr by NCCLS broth microdilution method; assay type: functional; conditions: Williopsis jadinii, NRRL Y-900, 24 h
KB = assay: Cytotoxicity against Homo sapiens (human) KB cells assessed as cell viability up to 25 ug/ml after 48 hr by neutral red assay; assay type: functional, cell-based
Vero = assay: Cytotoxicity against Chlorocebus aethiops (African green monkey) Vero cells assessed as cell viability up to 25 ug/ml after 48 hr by neutral red assay; assay type: cell-based; conditions: chlorocebus sabaeus
Fusarium oxysporum = assay: Antifungal activity against Fusarium oxysporum assessed as growth inhibition at 30 uM after 72 hr by broth microdilution method; assay type: functional; conditions: read-out: GI
Candida albicans [3] = assay: Antifungal activity against Candida albicans clinical isolate after 24 hr by NCCLS broth microdilution method; assay type: functional
SK-MEL = assay: Cytotoxicity against Homo sapiens (human) SK-MEL cells assessed as cell viability up to 25 ug/ml after 48 hr by neutral red assay; assay type: functional, cell-based
HL-60 [4] = assay: Antioxidant activity in PMA-stimulated Homo sapiens (human) HL60 cells assessed as inhibition of intracellular ROS generation up to 25 ug/ml incubated for 30 min prior to PMA stimulation measured after 30 min by DCFH-DA assay relative to vehicle-treated control; assay type: functional, cell-based
Colletotrichum fragariae = assay: Antifungal activity against Colletotrichum fragariae at 0.3 to 30 uM after 48 to 72 hr by broth microdilution method; assay type: functional, organism-based
[5] = tested on: Colletotrichum gloeosporioides; assay: Antifungal activity against Colletotrichum gloeosporioides assessed as growth inhibition at 30 uM after 72 hr by broth microdilution method; assay type: functional; conditions: read-out: GI
Candida tropicalis [6] = assay: Antifungal activity against Candida tropicalis NRRL Y-12968 after 24 hr by NCCLS broth microdilution method; assay type: functional; conditions: NRRL Y-12968, 24 h
Botrytis cinerea = assay: Antifungal activity against Botryotinia fuckeliana at 0.3 to 30 uM after 48 to 72 hr by broth microdilution method; assay type: functional, organism-based
Candida albicans [7] = assay: Antifungal activity against Candida albicans clinical isolate at 2000 ug/ml by agar diffusion method; assay type: functional; conditions: read-out: IZ
Candida parapsilosis = assay: Antifungal activity against Candida parapsilosis NRRL Y-12696 after 24 hr by NCCLS broth microdilution method; assay type: functional; conditions: Lodderomyces parapsilosis, NRRL Y-12696, 24 h
RAW264.7 [8] = assay: Cytotoxicity against Mus musculus (mouse) RAW264.7 cells up to 25 ug/ml; assay type: cell-based
Candida tropicalis [9] = assay: Antifungal activity against Candida tropicalis NRRL Y-12968 at 2000 ug/ml by agar diffusion method; assay type: functional; conditions: read-out: IZ
HL-60 [10] = assay: Cytotoxicity against Homo sapiens (human) HL60 cells; assay type: cell-based
Candida albicans [11] = assay: Antifungal activity against Candida albicans ATCC 90028 after 24 hr by NCCLS broth microdilution method; assay type: functional; conditions: ATCC 90028, 24 h
Nakaseomyces glabratus = assay: Antifungal activity against Candida glabrata clinical isolate after 24 hr by NCCLS broth microdilution method; assay type: functional
[12] = Cytotoxicity against Sus scrofa (pig) LLC-PK11 cells assessed as cell viability up to 25 ug/ml after 48 hr by neutral red assay; assay type: cell-based; conditions: llc-pk11, 48 h
SK-OV-3 = assay: Cytotoxicity against Homo sapiens (human) SKOV3 cells assessed as cell viability up to 25 ug/ml after 48 hr by neutral red assay; assay type: functional, cell-based
BT-549 = assay: Cytotoxicity against Homo sapiens (human) BT549 cells assessed as cell viability up to 25 ug/ml after 48 hr by neutral red assay; assay type: functional, cell-based
Pichia kudriavzevii = assay: Antifungal activity against Pichia kudriavzevii NRRL Y-7179 after 24 hr by NCCLS broth microdilution method; assay type: functional; conditions: NRRL Y-7179, 24 h
Transcription factor Sp1 = Transcription factor Sp1 (Homo sapiens, UniProt P08047); assay: Inhibition of Sp1 (unknown origin) up to 25 ug/ml by luciferase reporter gene assay
Transcription factor Sp1, sequence (P08047 whole entry): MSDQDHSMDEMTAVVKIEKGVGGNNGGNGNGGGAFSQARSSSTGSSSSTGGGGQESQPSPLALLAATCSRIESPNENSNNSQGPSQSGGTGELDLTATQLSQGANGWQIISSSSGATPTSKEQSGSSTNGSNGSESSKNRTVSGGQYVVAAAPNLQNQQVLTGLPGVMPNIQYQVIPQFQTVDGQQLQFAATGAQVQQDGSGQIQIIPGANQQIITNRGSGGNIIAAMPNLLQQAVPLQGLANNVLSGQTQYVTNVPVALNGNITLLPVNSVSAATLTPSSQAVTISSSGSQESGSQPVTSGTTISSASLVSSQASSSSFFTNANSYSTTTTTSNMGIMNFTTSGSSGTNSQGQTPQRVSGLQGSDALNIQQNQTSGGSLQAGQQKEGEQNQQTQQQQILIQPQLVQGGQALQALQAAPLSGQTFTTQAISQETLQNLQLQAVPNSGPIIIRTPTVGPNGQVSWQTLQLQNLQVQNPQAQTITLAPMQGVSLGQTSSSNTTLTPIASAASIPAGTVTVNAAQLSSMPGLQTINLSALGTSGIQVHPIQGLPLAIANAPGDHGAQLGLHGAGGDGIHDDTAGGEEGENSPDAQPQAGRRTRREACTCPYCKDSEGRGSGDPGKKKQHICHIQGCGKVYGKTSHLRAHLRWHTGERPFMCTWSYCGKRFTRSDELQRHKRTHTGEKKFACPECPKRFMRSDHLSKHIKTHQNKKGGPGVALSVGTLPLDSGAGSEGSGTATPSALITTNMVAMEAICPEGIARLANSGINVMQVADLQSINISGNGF

RAW264.7 [13] = assay: Cytotoxicity against Mus musculus (mouse) RAW264.7 cells; assay type: cell-based
[14] = Inhibition of PMA-induced NFkappaB activity in Homo sapiens (human) SW1353 cells incubated for 30 min followed by PMA induction for 8 hr by luciferase reporter gene assay; assay type: cell-based
[15] = target: T2, Nitric oxide synthase, inducible (Mus musculus) (UniProt P29477); assay: Inhibition of iNOS in Mus musculus (mouse) RAW264.7 cells assessed as inhibition of LPS-induced nitrite production up to 25 ug/ml incubated for 30 min prior to LPS challenge measured after 24 hr by Griess assay relative to vehicle-treated control; assay type: cell-based
T2 sequence (whole entry): T1 sequence (P29477 whole entry)

HL-60 [16] = assay: Cytotoxicity against Homo sapiens (human) HL60 cells up to 25 ug/ml; assay type: cell-based
HL-60 [17] = assay: Antioxidant activity in PMA-stimulated Homo sapiens (human) HL60 cells assessed as inhibition of intracellular ROS generation incubated for 30 min prior to PMA stimulation measured after 30 min by DCFH-DA assay; assay type: functional, cell-based

| SMILES | MIC (Candida albicans [1]) [µg/mL] | IC50 [2] [µM] | MIC (Cyberlindnera jadinii) [µg/mL] | MIC (Candida albicans [3]) [µg/mL] | MIC (Candida tropicalis [6]) [µg/mL] | MIC (Candida parapsilosis) [µg/mL] | MIC (Candida albicans [11]) [µg/mL] | MIC (Pichia kudriavzevii) [µg/mL] | inhibition (INH) (Transcription factor Sp1) | inhibition (SW1353) | Activity (KB) | Activity (Vero) | Activity (SK-MEL) | inhibition (HL-60 [4]) | Activity (Colletotrichum fragariae) | zone of inhibition at 2000 µg/mL (Candida albicans [7]) [mm] | zone of inhibition at 2000 µg/mL (Candida tropicalis [9]) [mm] | Activity [12] | Activity (SK-OV-3) | Activity (BT-549) | other results |
| --- | --- | --- | --- | --- | --- | --- | --- | --- | --- | --- | --- | --- | --- | --- | --- | --- | --- | --- | --- | --- | --- |
| C=C1C(=O)O[C@@H]2C3O[C@]3(C)CC/C=C(\C)CC[C@@H]12 (stereo not given in full) | – | 1.61 | – | – | – | – | – | – | – | – | – | – | – | – | – | – | – | – | – | – | IC50 (RAW264.7 [13]): 13 µg/mL (≈ 52.4 µM); IC50 [14]: 0.68 µg/mL (≈ 2.74 µM) |
| COc1ccc(C2OC(c3ccc(F)cc3)=NN2C(C)=O)cc1O (stereo not given) | 500 (≈ 1510 µM) | 12.1 | 250 (≈ 757 µM) | 250 (≈ 757 µM) | 500 (≈ 1510 µM) | 500 (≈ 1510 µM) | 500 (≈ 1510 µM) | 500 (≈ 1510 µM) | Not Active | – | inactive | Not Active | inactive | – | inactive | 9 | 9 | Not Active | inactive | inactive | IC50 (HL-60 [17]): 0.9 µg/mL (≈ 2.72 µM); Activity (Botrytis cinerea): inactive; Activity (RAW264.7 [8]): Non-toxic; IC50 (HL-60 [10]): 20 µg/mL (≈ 60.5 µM); MIC (Nakaseomyces glabratus): 250 µg/mL (≈ 757 µM); IC50 [14]: 0.75 µg/mL (≈ 2.27 µM) |

The next lines start with results.

| MIC (Candida albicans [1]) [µg/mL] | IC50 [2] [µM] | MIC (Cyberlindnera jadinii) [µg/mL] | MIC (Candida albicans [3]) [µg/mL] | MIC (Candida tropicalis [6]) [µg/mL] | MIC (Candida parapsilosis) [µg/mL] | MIC (Candida albicans [11]) [µg/mL] | MIC (Pichia kudriavzevii) [µg/mL] | inhibition (INH) (Transcription factor Sp1) | SMILES | inhibition (SW1353) | Activity (KB) | Activity (Vero) | Activity (SK-MEL) | inhibition (HL-60 [4]) | Activity (Colletotrichum fragariae) | zone of inhibition at 2000 µg/mL (Candida albicans [7]) [mm] | zone of inhibition at 2000 µg/mL (Candida tropicalis [9]) [mm] | Activity [12] | Activity (SK-OV-3) | Activity (BT-549) | other results |
| --- | --- | --- | --- | --- | --- | --- | --- | --- | --- | --- | --- | --- | --- | --- | --- | --- | --- | --- | --- | --- | --- |
| 125 (≈ 382 µM) | > 76.4 | 250 (≈ 764 µM) | 250 (≈ 764 µM) | 250 (≈ 764 µM) | 250 (≈ 764 µM) | 250 (≈ 764 µM) | 250 (≈ 764 µM) | Not Active | O=C(N/N=C/c1ccc(Br)s1)c1ccc(F)cc1 | inactive | inactive | Not Active | inactive | inactive | inactive | 9 | 9 | Not Active | inactive | inactive | inhibition of growth at 30 µM (Diaporthe ampelina): 91%; inhibition of growth at 30 µM (Fusarium oxysporum): 40%; inhibition of growth at 30 µM [5]: 32%; Activity (Botrytis cinerea): inactive; Activity (RAW264.7 [8]): Non-toxic; IC50 (HL-60 [10]): 16 µg/mL (≈ 48.9 µM); MIC (Nakaseomyces glabratus): 250 µg/mL (≈ 764 µM) |
| 500 (≈ 1560 µM) | – | 1000 (≈ 3110 µM) | 500 (≈ 1560 µM) | – | 1000 (≈ 3110 µM) | 500 (≈ 1560 µM) | 500 (≈ 1560 µM) | Not Active | O=C(N/N=C/c1ccc(Br)cc1)c1ccc(F)cc1 | inactive | inactive | Not Active | inactive | inactive | inactive | 9 | 9 | Not Active | inactive | inactive | inhibition of growth at 30 µM (Fusarium oxysporum): 35%; inhibition [15]: inactive; inhibition of growth at 30 µM [5]: 22%; Activity (HL-60 [16]): Non-toxic; Activity (Botrytis cinerea): inactive; Activity (RAW264.7 [8]): Non-toxic; MIC (Nakaseomyces glabratus): 250 µg/mL (≈ 778 µM) |
| 500 (≈ 1940 µM) | > 96.8 | 500 (≈ 1940 µM) | – | 500 (≈ 1940 µM) | 500 (≈ 1940 µM) | 500 (≈ 1940 µM) | 500 (≈ 1940 µM) | Not Active | O=C(N/N=C/c1ccc(O)cc1)c1ccc(F)cc1 | inactive | inactive | Not Active | inactive | inactive | – | 9 | 9 | Not Active | inactive | inactive | inhibition [15]: inactive; Activity (HL-60 [16]): Non-toxic; IC50 (RAW264.7 [13]): > 25 µg/mL |
